Reference: paper PMC12415608 (Molecular biology of the cell, 2025)

Molecular target: PaFimX (Pseudomonas aeruginosa, UniProt Q9HUK6)
Test: isothermal titration calorimetry
Assay type: binding

Nc1nc2c(ncn2[C@@H]2O[C@@H]3CO[P@](=O)(O)O[C@H]4[C@@H](O)[C@H](n5cnc6c(=O)[nH]c(N)nc65)O[C@@H]4CO[P@](=O)(O)O[C@H]3[C@H]2O)c(=O)[nH]1 [cdG]
Kd: 144 nM
